This is an account of results in US4607123A, “Water soluble 3,5-diacetamido-2,4,6-triiodobenzoic acid derivatives” (Dr. Franz Kohler Chemie GmbH, priority 1984, dated 1986).

Data set [1] is described as follows: LD50 in mouse, i.v. (Table 3). The settings on record: in vivo, iv, 14 days after application, solution with 300 mg J/ml. In kind it is in vivo. The protocol:
(§1) LD50 in mouse, i.v. (14 days after application) of solution
(§2) with a content of 300 mg J/ml.

The nature of data set [2]: viscosity of aqueous preparations (Table 1). In kind it is physicochemical. The source says:
The derivatives of compounds (I) of the invention which show a good solubility in water generally show viscosity values which, as can be expected, are dependent from the number and position of the hydroxy groups, as well as from the configuration of the amino acid residue. Representative compounds of the invention are shown in the Table 1, with their viscosity values.
Viscosity data in dependency from the type of amino acid and
the concentration of the preparation.

A short description of another data set: water solubility. The settings on record: for solubility: water; for solubility (in words): in water. The format is physicochemical. The source says: The configuration of the α-amino acid moiety may be arbitrary. The type of amino acid residue influences to a degree the solubility of the compound of the invention in water. For example, […]
Another data set deals with mouse. In words: LD50 in mouse, i.v. (Table 3). In kind it is in vivo. The procedure: as §1, §2
Data set [3] is described as follows: heat stability of a 67,9% aq. solution at different temperatures and times (Table 2). The format is physicochemical. The source says:
Behaviour of a 67,9% aq. solution of (II) at different temperatures

Where only a bound is given, the exact number is not on record here.

As a reminder, the LD50 is the dose expected to kill half of the subjects tested. A higher LD50 goes with a less toxic substance. A word on the solubility: it is the concentration that dissolves in the medium under given conditions. Higher therefore signals a readily soluble substance.

In the case of `CC(=O)Nc1c(I)c(NC(C)=O)c(I)c(C(=O)O)c1I` [sodium-meglumine-diatrizoate, reference compound], the LD50 at 336 h in data set [1] was 12000 to 14000 mg/kg.

`CC(=O)Nc1c(I)c(NC(C)=O)c(I)c(C(=O)N[C@@H](CO)C(=O)N(C)C[C@H](O)[C@@H](O)[C@H](O)[C@H](O)CO)c1I` [VIII, N,N-[(3,5-diacetamido-2,4,6-triiodobenzoyl)-L-serine]-N-methyl glucamide]: the Viscosity in data set [2] (20° C., 100 mg J/ml) was 2.13 cP; in data set [2] (20° C., 150 mg J/ml) it was 3.11 cP; in data set [2] (20° C., 200 mg J/ml) it was 5.15 cP; in data set [2] (20° C., 250 mg J/ml), 9.43 cP; in data set [2] (20° C., 300 mg J/ml) it was 20.05 cP; in data set [2] (37° C., 100 mg J/ml), 1.84 cP. Also, the Viscosity in data set [2] (37° C., 150 mg J/ml) was 1.95 cP; in data set [2] (37° C., 200 mg J/ml), 3.04 cP; in data set [2] (37° C., 250 mg J/ml), 5.16 cP; in data set [2] (37° C., 300 mg J/ml), 9.71 cP. Further, the solubility in the data set “water solubility” (soluble) is ≤ 500 mg/mL.

On to `CC(=O)Nc1c(I)c(NC(C)=O)c(I)c(C(=O)N[C@@H](C)C(=O)N(C)C[C@H](O)[C@@H](O)[C@H](O)[C@H](O)CO)c1I` [III, N,N-[(3,5-diacetamido-2,4,6-triiodobenzoyl)-L-alanine]-N-methyl glucamide], for which the solubility in “water solubility” (soluble) is ≤ 500 mg/mL.

In the case of `CC(=O)Nc1c(I)c(NC(C)=O)c(I)c(C(=O)NCCC(=O)N(C)C[C@H](O)[C@@H](O)[C@H](O)[C@H](O)CO)c1I` [IV, N,N-[(3,5-diacetamido-2,4,6-triiodobenzoyl)-β-alanine]-N-methyl glucamide], the solubility in “water solubility” (moderately soluble) was ≤ 200 mg/mL.

For `CC(=O)Nc1c(I)c(NC(C)=O)c(I)c(C(=O)NC(CC(=O)N(C)C[C@H](O)[C@@H](O)[C@H](O)[C@H](O)CO)C(=O)N(C)C[C@H](O)[C@@H](O)[C@H](O)[C@H](O)CO)c1I` (mixture of isomers) [X, N,N-[(3,5-diacetamido-2,4,6-triiodobenzoyl)-DL-aspartic acid]-bis-N-methyl glucamide], the Viscosity in data set [2] (20° C., 200 mg J/ml) is 10.65 cP; in data set [2] (20° C., 250 mg J/ml), 25.38 cP; in data set [2] (37° C., 200 mg J/ml) it was 5.84 cP; in data set [2] (37° C., 250 mg J/ml) it was 12.23 cP. For the same compound, the “solubility (in words)” value in the data set “water solubility” is on record as “superior in respect to solubility”. In addition, the solubility in “water solubility” (very soluble) was > 1000 mg/mL.

Consider `CC(=O)Nc1c(I)c(NC(C)=O)c(I)c(C(=O)NCCCC[C@H](NC(=O)C(C)O)C(=O)N(C)C[C@H](O)[C@@H](O)[C@H](O)[C@H](O)CO)c1I` (stereo partly drawn) [XII, N,N-[α-lactyl-ε-(3,5-diacetamido-2,4,6-triiodobenzoyl)-L-lysine]-N-methyl glucamide], for which, in the data set “water solubility” (moderately soluble), the solubility was ≤ 200 mg/mL.

As for `CC(=O)Nc1c(I)c(NC(C)=O)c(I)c(C(=O)O)c1I` [lysine-diatrizoate, reference compound], in the data set on mouse (i.v., 14 days after application, solution with 300 mg J/ml, 20160 min), the median lethal dose (LD50) was in the range of 14000 to 18000 mg/kg.

Take `CC(=O)Nc1c(I)c(NC(C)=O)c(I)c(C(=O)N[C@@H](CC(=O)N(C)C[C@H](O)[C@@H](O)[C@H](O)[C@H](O)CO)C(=O)N(C)C[C@H](O)[C@@H](O)[C@H](O)[C@H](O)CO)c1I` [IX, N,N-[(3,5-diacetamido-2,4,6-triiodobenzoyl)-L-aspartic acid]-bis-N-methyl glucamide]: the Viscosity in data set [2] (20° C., 100 mg J/ml) is 2.90 cP; in data set [2] (20° C., 150 mg J/ml) it was 5.15 cP; in data set [2] (20° C., 200 mg J/ml) it was 11.14 cP; in data set [2] (20° C., 250 mg J/ml), 33.58 cP; in data set [2] (20° C., 300 mg J/ml), 88.85 cP; in data set [2] (37° C., 100 mg J/ml) it was 1.84 cP. Moreover, the Viscosity in data set [2] (37° C., 150 mg J/ml) is 3.04 cP; in data set [2] (37° C., 200 mg J/ml), 6.06 cP; in data set [2] (37° C., 250 mg J/ml), 15.96 cP; in data set [2] (37° C., 300 mg J/ml), 35.41 cP. Besides, the “solubility (in words)” value in the data set “water solubility” is “superior in respect to solubility”. Also, the solubility in “water solubility” (very soluble) was > 1000 mg/mL.

Turning to `CC(=O)Nc1c(I)c(NC(C)=O)c(I)c(C(=O)NCCCC(=O)N(C)C[C@H](O)[C@@H](O)[C@H](O)[C@H](O)CO)c1I` [V, N,N-[(3,5-diacetamido-2,4,6-triiodobenzoyl)-γ-aminobutyric acid]-N-methyl glucamide], the solubility in the data set “water solubility” (moderately soluble) is ≤ 200 mg/mL.

`CC(=O)Nc1c(I)c(NC(C)=O)c(I)c(C(=O)N[C@@H](CCC(=O)N(C)C[C@H](O)[C@@H](O)[C@H](O)[C@H](O)CO)C(=O)N(C)C[C@H](O)[C@@H](O)[C@H](O)[C@H](O)CO)c1I` [XI, N,N-[(3,5-diacetamido-2,4,6-triiodobenzoyl)-L-glutamic acid]-bis-N-methyl glucamide]: the “solubility (in words)” value in “water solubility” is reported as “superior in respect to solubility”. In addition, the values for the solubility in “water solubility” (moderately soluble) and in the data set “water solubility” (very soluble) were ≤ 200 mg/mL and > 1000 mg/mL, respectively.

With `CC(=O)Nc1c(I)c(NC(C)=O)c(I)c(C(=O)N(C)CC(=O)N(C)C[C@H](O)[C@@H](O)[C@H](O)[C@H](O)CO)c1I` [II, N,N-[(3,5-diacetamido-2,4,6-triiodobenzoyl)-sarcosine]-N-methyl glucamide], the Color result in data set [3] (30 min, 110 °C.) is on record as “colorless”; in data set [3] (30 min, 120 °C.), “colorless”; in data set [3] (60 min, 110 °C.) it was “colorless”; in data set [3] (base solution), “colorless”. Further, the Iodide in data set [3] (30 min, 110 °C.) is recorded as 2.63 mg J/100 ml; in data set [3] (30 min, 120 °C.), 3.73 mg J/100 ml; in data set [3] (60 min, 110 °C.), 3.72 mg J/100 ml; in data set [3] (base solution), 1.78 mg J/100 ml. Besides, the pH was 7.85 in data set [3] (30 min, 110 °C.); 7.80 in data set [3] (30 min, 120 °C.); 7.75 in data set [3] (60 min, 110 °C.); 7.85 in data set [3] (base solution). The “toxicity (in words)” value in the data set with mouse (in vivo) is “low toxicity”. Besides, the LD50 at 336 h in data set [1] came to 36000 mg/kg. Moreover, the Viscosity came out at 2.16 cP in data set [2] (20° C., 100 mg J/ml); 3.50 cP in data set [2] (20° C., 150 mg J/ml); 5.74 cP in data set [2] (20° C., 200 mg J/ml); 10.84 cP in data set [2] (20° C., 250 mg J/ml); 18.88 cP in data set [2] (20° C., 300 mg J/ml); 1.48 cP in data set [2] (37° C., 100 mg J/ml). For the same compound, the Viscosity in data set [2] (37° C., 150 mg J/ml) was found to be 2.22 cP; in data set [2] (37° C., 200 mg J/ml), 3.32 cP; in data set [2] (37° C., 250 mg J/ml) it was 6.20 cP; in data set [2] (37° C., 300 mg J/ml), 9.22 cP. For the same compound, the “solubility (in words)” value in the data set “water solubility” is “superior in respect to solubility”. Also, the solubility in “water solubility” (very soluble) was > 1000 mg/mL.
